# Measurements reported in US20140090094A1, “MODULATORS OF SLC22A7” (BAYER INTELLECTUAL PROPERTY GmbH, priority 2011, published 2014).
# Where “and” joins values, the source holds several entries; their conditions need not be identical. Equal values may be shown once.
# Legend:
# OAT2h = biological target: T1, OAT2h (Homo sapiens, UniProt Q9Y694); experiment: 1 min uptake into 293 cells expressing OAT2 from human; format: cell-based; conditions: for clearance: 1 min uptake, 0.1 μmol/l radiotracer
# T1 construct: expressed in transfected cells; host or cells: 293 cells (HEK-293), pEBTetD/OAT2h, doxycycline-inducible
# T1 sequence (Q9Y694 1-546 isoform Q9Y694-2): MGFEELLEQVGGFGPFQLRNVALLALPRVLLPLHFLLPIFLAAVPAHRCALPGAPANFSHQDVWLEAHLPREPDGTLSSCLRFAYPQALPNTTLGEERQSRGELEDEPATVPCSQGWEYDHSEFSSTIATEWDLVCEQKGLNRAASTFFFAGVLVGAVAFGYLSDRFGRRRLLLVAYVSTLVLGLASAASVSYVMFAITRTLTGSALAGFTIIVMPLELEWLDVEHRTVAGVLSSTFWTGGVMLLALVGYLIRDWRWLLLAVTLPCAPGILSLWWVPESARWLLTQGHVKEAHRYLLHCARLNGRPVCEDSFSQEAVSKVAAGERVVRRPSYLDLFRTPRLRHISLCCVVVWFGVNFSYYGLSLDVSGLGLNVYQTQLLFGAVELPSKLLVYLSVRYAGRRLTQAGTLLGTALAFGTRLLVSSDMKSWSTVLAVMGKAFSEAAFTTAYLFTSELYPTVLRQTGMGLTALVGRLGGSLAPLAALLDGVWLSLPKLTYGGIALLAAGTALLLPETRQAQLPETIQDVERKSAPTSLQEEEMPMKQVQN
# Protocol: (§1) Cells were used for uptake experiments at a confluence of at least 70%. Uptake was measured at 37° C. […] After preincubation for at least 20 minutes in 4 ml of uptake buffer, the buffer was replaced with 2 ml of substrate in uptake buffer. The total substrate concentration if not indicated otherwise was 0.1 μmol/l for radiotracer assays and 10 μmol/l for unlabeled compounds. Incubation was stopped after 1 min by rinsing the cells four times each with 4 ml ice-cold uptake buffer. Radioactivity was determined, after cell lysis with 0.1% v/v Triton X-100 in 5 mmol/l TRIS-HCl pH 7.4, by liquid scintillation counting. For LCelectrospray ionization-MS/MS analysis, cells were lysed with methanol and stored at −20° C.
# (§2) After centrifugation (1 min, 16000×g, 20° C.) of thawed lysates, 100 μl of the supernatant was mixed with either 10 μl unlabeled MPP+ iodide (0.5 ng/μl) or biphenyl-4-carboxylic acid (Sigma-Aldrich) as internal standard. […] Atmospheric pressure ionization with positive or negative electrospray was used. For quantification (scan time 150 ms), the optimal collision energy for argon-induced fragmentation in the second quadrupole was determined for each analyte. […] Linear calibration curves were constructed from at least six standards which were prepared using control cell lysates as solvent. Sample analyte content was calculated from the analyte response ratio and the slope of the calibration curve, obtained by linear regression. With LC-MS quantitation, solute content of cell lysates was determined for 4 conditions (paired dishes, incubation time 1 min): a) transporter expression on, uptake buffer; b) expression off, uptake buffer; c) expression on, substrate in uptake buffer; d) expression off, substrate in uptake buffer. Acute uptake mediated by heterologously expressed carrier was then calculated as (c−a)−(d−b). This approach takes into account endogenous solute content and non-specific uptake. Protein was measured by the BCA assay (Pierce) with bovine serum albumin as standard. The protein content of MS samples was estimated from 3 matched cell dishes.
# OAT2r = biological target: T2, OAT2r (Rattus norvegicus, UniProt Q5RLM2); experiment: 1 min uptake into 293 cells expressing OAT2 from rat; format: cell-based; conditions: for clearance: 1 min uptake, 0.1 μmol/l radiotracer; for uptake after preloading with orotic acid (factor f): 1 h preincubation ±100 μmol/l unlabeled orotic acid, 3H-orotic acid 0.1 μmol/l 1 min, trigonelline 10 μmol/l 5 min;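 for all read-outs here: uptake at 37 °C, read by liquid scintillation counting or LC-ESI-MS/MS, carrier-mediated part as induced-minus-uninduced expression difference corrected for baseline content, protein by BCA assay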
# T2 construct: expressed in transfected cells
# T2 sequence (Q5RLM2 1-535): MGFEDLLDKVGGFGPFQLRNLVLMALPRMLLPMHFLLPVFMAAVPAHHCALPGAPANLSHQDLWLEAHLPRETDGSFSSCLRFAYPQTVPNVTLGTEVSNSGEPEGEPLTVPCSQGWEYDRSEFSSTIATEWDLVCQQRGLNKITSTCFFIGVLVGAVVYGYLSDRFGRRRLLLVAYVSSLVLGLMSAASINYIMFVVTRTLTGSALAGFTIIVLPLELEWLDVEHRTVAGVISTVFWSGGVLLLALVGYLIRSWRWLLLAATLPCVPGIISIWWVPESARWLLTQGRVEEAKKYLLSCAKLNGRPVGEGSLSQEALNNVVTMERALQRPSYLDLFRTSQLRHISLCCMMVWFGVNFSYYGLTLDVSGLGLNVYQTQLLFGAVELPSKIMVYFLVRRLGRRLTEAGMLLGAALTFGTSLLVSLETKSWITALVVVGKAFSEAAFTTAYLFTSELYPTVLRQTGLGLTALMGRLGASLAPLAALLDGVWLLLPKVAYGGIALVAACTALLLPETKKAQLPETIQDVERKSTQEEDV
# Protocol: as §1, §2
# [1] = initial rate 1 min, 37° C., 10 μmol/l, LC-MS/MS, uptake buffer in the expression period
uptake after preloading with orotic acid (factor f) (OAT2r),"factor of uptake reduction on average (OAT2r; sodium chloride replaced by choline, lithium or potassium chloride, or magnesium and calcium omitted)",carrier-mediated clearance (OAT2h; [1]) [μl min-1 mg protein-1],carrier-mediated clearance (OAT2r; [1]) [μl min-1 mg protein-1],SMILES,clearance (OAT2h; sodium-free buffer) [μl min-1 mg protein-1],"Vmax (OAT2h; saturation of OAT2h-mediated specific uptake, 1 min, sodium-free buffer) [nmol min-1 mg protein-1]","Km (OAT2h; saturation of uptake, sodium-free buffer, measured as uptake) [µM]",clearance (OAT2r; sodium-free buffer) [μl min-1 mg protein-1],clearance (OAT2r; standard uptake buffer),clearance (OAT2h; uptake buffer)
–,–,–,–,N[C@@H](CCC(=O)O)C(=O)O [glutamate],70±5,36±4,1100,24±1,35±3 μl min-1 mg protein-1,–
0.7,0.75,–,–,O=C(O)c1cc(=O)[nH]c(=O)[nH]1 [orotic acid],–,–,–,–,106±4 μl min-1 mg protein-1 and 106 μl min-1 mg protein-1,46±1 μl min-1 mg protein-1 and 46 μl min-1 mg protein-1
0.7,–,121±5,4.8±0.5,C[n+]1cccc(C(=O)[O-])c1 [trigonelline],–,–,–,–,–,–
